These results are taken from PMC6773804, “Mapping of a Regulatory Site of the Escherichia coli ADP-Glucose Pyrophosphorylase” (Frontiers in Molecular Biosciences, 2019).

Residue numbers refer to the chain shown, from its start. Like-named read-outs stand apart in the source and are kept apart here.

For data set [1], the target named is T1, E. coli ADP-glucose pyrophosphorylase (ADP-Glc PPase) (Escherichia coli, UniProt P0A6V1).
T1 construct: gene glgC
T1 sequence (P0A6V1 1-431): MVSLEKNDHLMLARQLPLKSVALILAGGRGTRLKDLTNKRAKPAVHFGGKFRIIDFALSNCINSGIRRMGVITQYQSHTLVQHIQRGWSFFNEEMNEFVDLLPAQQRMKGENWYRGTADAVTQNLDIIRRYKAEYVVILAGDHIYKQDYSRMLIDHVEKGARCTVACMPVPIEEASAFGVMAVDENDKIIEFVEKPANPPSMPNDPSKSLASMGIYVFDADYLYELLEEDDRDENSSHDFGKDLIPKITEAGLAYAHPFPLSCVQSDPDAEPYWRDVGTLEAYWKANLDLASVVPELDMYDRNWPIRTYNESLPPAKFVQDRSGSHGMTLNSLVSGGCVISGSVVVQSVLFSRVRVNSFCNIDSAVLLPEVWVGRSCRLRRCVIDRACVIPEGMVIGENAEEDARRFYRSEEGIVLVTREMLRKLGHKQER
As to the kind of experiment: thermal shift assay, SYPRO Orange. In kind it is binding. Conditions: read-out: dTm at 1 mM.

Data set [2] has as its target T2, E. coli ADP-glucose pyrophosphorylase (ADP-Glc PPase) (Escherichia coli, UniProt P0A6V1, R423A).
T2 construct: gene glgC
T2 sequence (P0A6V1 1-431 R423A): T1 sequence (P0A6V1 1-431) with R423A
The data set can be described thus: ADP-glucose synthesis, colorimetric phosphate detection after pyrophosphatase. The data set is classed as biochemical. The source says:
(§1) ADP-glucose synthesis, colorimetric phosphate detection after pyrophosphatase on E. coli ADP-glucose pyrophosphorylase (ADP-Glc PPase)

The target in data set [3] is T3, E. coli ADP-glucose pyrophosphorylase (ADP-Glc PPase) (Escherichia coli, UniProt P0A6V1, R353A).
T3 construct: gene glgC
T3 sequence (P0A6V1 1-431 R353A): T1 sequence (P0A6V1 1-431) with R353A
Described as above. The data set is classed as biochemical.
Source text: as §1

Data set [4] deals with T4, E. coli ADP-glucose pyrophosphorylase (ADP-Glc PPase) (Escherichia coli, UniProt P0A6V1, R130A).
T4 construct: gene glgC
T4 sequence (P0A6V1 1-431 R130A): T1 sequence (P0A6V1 1-431) with R130A
The description is as above. The data set is classed as biochemical.
Source text: as §1

The target of data set [5] is T1, E. coli ADP-glucose pyrophosphorylase (ADP-Glc PPase). Described as above. The data set is classed as biochemical.
Source text: as §1

The target of data set [6] is T5, E. coli ADP-glucose pyrophosphorylase (ADP-Glc PPase) (Escherichia coli, UniProt P0A6V1, R419A).
T5 construct: gene glgC
T5 sequence (P0A6V1 1-431 R419A): T1 sequence (P0A6V1 1-431) with R419A
The description is as above. In kind it is biochemical.
Source text: as §1

In data set [7] the target is T6, E. coli ADP-glucose pyrophosphorylase (ADP-Glc PPase) (Escherichia coli, UniProt P0A6V1, R386A).
T6 construct: gene glgC
T6 sequence (P0A6V1 1-431 R386A): T1 sequence (P0A6V1 1-431) with R386A
The description is as above. The data set is classed as biochemical.
Source text: as §1

In data set [8] the target is T7, E. coli ADP-glucose pyrophosphorylase (ADP-Glc PPase) (Escherichia coli, UniProt P0A6V1, R40A).
T7 construct: gene glgC
T7 sequence (P0A6V1 1-431 R40A): T1 sequence (P0A6V1 1-431) with R40A
The data set is described as above. The data set is classed as biochemical. Conditions: read-out: PLP / A0.5 /.
Source text: as §1

The target of data set [9] is T8, E. coli ADP-glucose pyrophosphorylase (ADP-Glc PPase) (Escherichia coli, UniProt P0A6V1, R52K).
T8 construct: gene glgC
T8 sequence (P0A6V1 1-431 R52K): T1 sequence (P0A6V1 1-431) with R52K
The description is as above. Conditions: read-out: PLP / A0.5 /. The data set is classed as biochemical.
Source text: as §1

Substrate in data set [10]: Nc1ncnc2c1ncn2[C@@H]1O[C@H](COP(=O)(O)OP(=O)(O)OP(=O)(O)O)[C@@H](O)[C@H]1O
The description is as above. In kind it is biochemical, Escherichia coli. Conditions: no activator (control), 1 mM Glc1P, 10 mM MgCl2, 50 mM HEPES pH 8.0. On the procedure: One was measured in absence (control)

[11] abbreviates: activator, allosteric, 1.0 mM Glc1P, 1.5 mM ATP, 10 mM MgCl2, pH 8.0, read-out: FBP / A0.5 /.

On to `O=P(O)(O)OC[C@H]1OC(O)(COP(=O)(O)O)[C@@H](O)[C@@H]1O` (stereo partly shown) [FBP], for which the ΔTm at 1000 µM in [1] was 13.2 °C. The EC50 in data set [2] (setting [11]) came out at 320 ± 50 µM; in [3] (setting [11]), 40 ± 10 µM; in [4] (setting [11]), 67 ± 10 µM; in data set [5] (setting [11]), 27 ± 9 µM; in data set [6] (setting [11]), 36 ± 11 µM; in data set [7] (setting [11]), 1000 ± 130 µM.
Consider `Cc1ncc(COP(=O)(O)O)c(C=O)c1O` [PLP], for which the EC50 is 0.21 ± 0.01 µM in data set [2] (read-out: PLP / A0.5 /); 0.16 ± 0.01 µM in data set [3] (read-out: PLP / A0.5 /); 0.48 ± 0.22 µM in [8]; 1.29 ± 0.23 µM in data set [4] (read-out: PLP / A0.5 /); 0.22 ± 0.05 µM in data set [9]; 0.075 ± 0.004 µM in data set [5] (read-out: PLP / A0.5 /). Besides, the EC50 in [6] (read-out: PLP / A0.5 /) was determined as 0.019 ± 0.005 µM; in data set [7] (read-out: PLP / A0.5 /) it was 4.2 ± 0.6 µM.

B1: E. coli ADP-glucose pyrophosphorylase (ADP-Glc PPase) (Escherichia coli K-12) (protein)
chain: T1 sequence (P0A6V1 1-431)
For the molecule B1, the K0.5 in data set [10] was found to be 1.75 ± 0.09 mM.
